Test results from the kinase profiling compilation of Christmann-Franck et al. (2016).
Values joined by “and” are separate entries in the source; they are usually repeats but may differ in a detail not shown here. Equal entries are not always repeated.

Assays:
PLK2 (human) = PLK2 (human) (UniProt Q9NYY3); assay: IMAP-FP
PKN1 (human) = PKN1 (human) (UniProt Q16512); assay: IMAP-FP
EIF2AK3 (human) = EIF2AK3 (human) (UniProt Q9NZJ5); assay: IMAP-FP
SRPK1 (human) = SRPK1 (human) (UniProt Q96SB4); assay: IMAP-FP
DAPK1 (human) = DAPK1 (human) (UniProt P53355); assay: Caliper, Mobility shift assay off-chip
EPHB2 (human) = EPHB2 (human) (UniProt P29323); assay: Caliper, Mobility shift assay off-chip
Chain of EPHB2 (human) (P29323 whole entry, looked up): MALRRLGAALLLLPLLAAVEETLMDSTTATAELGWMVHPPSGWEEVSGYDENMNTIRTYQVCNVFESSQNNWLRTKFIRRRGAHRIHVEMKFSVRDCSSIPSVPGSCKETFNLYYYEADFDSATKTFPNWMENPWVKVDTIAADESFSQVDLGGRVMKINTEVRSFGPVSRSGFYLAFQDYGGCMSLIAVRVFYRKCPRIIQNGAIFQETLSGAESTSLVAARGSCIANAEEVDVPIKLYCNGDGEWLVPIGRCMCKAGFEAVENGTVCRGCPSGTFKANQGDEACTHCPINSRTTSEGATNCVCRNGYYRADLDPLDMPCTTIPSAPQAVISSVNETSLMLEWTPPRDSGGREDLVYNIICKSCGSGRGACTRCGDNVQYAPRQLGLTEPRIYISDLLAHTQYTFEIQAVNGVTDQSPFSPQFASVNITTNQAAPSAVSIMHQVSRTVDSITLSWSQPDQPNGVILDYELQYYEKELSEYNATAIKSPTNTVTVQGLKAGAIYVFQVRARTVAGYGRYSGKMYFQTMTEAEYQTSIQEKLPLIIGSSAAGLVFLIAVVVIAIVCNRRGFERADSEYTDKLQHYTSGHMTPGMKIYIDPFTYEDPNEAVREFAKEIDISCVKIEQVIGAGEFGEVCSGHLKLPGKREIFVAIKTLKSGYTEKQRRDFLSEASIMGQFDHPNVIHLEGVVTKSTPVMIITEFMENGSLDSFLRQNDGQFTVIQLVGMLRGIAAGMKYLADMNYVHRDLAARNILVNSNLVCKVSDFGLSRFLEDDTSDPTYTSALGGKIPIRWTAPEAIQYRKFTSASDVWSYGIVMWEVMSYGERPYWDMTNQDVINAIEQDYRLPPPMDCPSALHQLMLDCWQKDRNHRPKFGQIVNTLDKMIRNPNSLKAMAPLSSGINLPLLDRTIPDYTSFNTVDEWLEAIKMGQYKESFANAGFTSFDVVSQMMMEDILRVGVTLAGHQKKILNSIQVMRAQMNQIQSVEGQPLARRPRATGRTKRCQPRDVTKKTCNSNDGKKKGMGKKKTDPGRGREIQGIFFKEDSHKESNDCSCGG

EPHB3 (human) = EPHB3 (human) (UniProt P54753); assay: Caliper, Mobility shift assay off-chip
BLK (human) = BLK (human) (UniProt P51451); assay: Caliper, Mobility shift assay off-chip
Chain of BLK (human) (P51451 whole entry, looked up): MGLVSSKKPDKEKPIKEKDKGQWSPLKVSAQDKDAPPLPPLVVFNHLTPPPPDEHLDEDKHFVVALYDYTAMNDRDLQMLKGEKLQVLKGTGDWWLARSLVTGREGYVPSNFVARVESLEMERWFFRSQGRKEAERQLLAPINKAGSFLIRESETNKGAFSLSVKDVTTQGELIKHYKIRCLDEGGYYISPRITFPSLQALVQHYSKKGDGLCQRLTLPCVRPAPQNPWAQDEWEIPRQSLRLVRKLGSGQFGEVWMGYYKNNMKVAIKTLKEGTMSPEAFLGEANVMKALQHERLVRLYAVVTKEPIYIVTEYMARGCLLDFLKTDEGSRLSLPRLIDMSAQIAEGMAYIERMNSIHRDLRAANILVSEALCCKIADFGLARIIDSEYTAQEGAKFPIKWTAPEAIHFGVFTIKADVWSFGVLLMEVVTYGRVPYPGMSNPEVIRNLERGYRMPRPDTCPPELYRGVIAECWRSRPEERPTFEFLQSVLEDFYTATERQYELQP

STK24 (human) = STK24 (human) (UniProt Q9Y6E0); assay: Caliper, Mobility shift assay off-chip
CHEK1 (human) = CHEK1 (human) (UniProt O14757); assay: Caliper, Mobility shift assay off-chip
Chain of CHEK1 (human) (O14757 whole entry, looked up): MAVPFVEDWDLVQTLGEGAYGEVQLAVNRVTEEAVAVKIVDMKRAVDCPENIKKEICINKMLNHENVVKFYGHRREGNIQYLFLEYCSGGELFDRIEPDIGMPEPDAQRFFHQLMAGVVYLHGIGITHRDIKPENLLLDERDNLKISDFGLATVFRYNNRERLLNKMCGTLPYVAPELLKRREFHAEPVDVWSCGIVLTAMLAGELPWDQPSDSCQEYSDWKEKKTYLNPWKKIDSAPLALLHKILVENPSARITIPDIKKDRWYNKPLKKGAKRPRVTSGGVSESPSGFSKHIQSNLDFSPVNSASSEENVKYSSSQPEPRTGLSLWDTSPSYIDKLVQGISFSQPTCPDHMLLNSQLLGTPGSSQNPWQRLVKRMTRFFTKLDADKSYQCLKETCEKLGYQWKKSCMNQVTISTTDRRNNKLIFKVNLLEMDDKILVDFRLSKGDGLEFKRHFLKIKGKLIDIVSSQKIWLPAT

CHUK (human) = CHUK (human) (UniProt O15111); assay: Caliper, Mobility shift assay off-chip
WNK3 (human) = WNK3 (human) (UniProt Q9BYP7); assay: Caliper, Mobility shift assay off-chip
NIM1 (human) = NIM1 (human) (UniProt Q8IY84); assay: Caliper, Mobility shift assay off-chip
FRK (human) = FRK (human) (UniProt P42685); assay: Caliper, Mobility shift assay off-chip
Chain of FRK (human) (P42685 whole entry, looked up): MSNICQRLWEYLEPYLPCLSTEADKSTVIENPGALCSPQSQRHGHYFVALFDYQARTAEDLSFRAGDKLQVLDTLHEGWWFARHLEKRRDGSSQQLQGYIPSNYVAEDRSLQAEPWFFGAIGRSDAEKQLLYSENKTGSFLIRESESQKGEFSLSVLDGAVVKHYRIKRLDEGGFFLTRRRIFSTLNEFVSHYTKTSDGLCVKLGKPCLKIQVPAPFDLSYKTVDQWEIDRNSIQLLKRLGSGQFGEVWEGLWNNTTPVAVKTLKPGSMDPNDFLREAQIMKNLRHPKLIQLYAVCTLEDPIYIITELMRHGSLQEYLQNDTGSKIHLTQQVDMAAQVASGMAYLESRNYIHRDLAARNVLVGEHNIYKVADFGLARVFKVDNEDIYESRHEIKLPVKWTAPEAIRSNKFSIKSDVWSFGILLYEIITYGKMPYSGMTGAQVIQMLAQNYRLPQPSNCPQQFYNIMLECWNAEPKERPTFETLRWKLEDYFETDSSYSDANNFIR

HIPK3 (human) = HIPK3 (human) (UniProt Q9H422); assay: Caliper, Mobility shift assay off-chip
MINK1 (human) = MINK1 (human) (UniProt Q8N4C8); assay: Caliper, Mobility shift assay off-chip
CSK (human) = CSK (human) (UniProt P41240); assay: Caliper, Mobility shift assay off-chip
Chain of CSK (human) (P41240 whole entry, looked up): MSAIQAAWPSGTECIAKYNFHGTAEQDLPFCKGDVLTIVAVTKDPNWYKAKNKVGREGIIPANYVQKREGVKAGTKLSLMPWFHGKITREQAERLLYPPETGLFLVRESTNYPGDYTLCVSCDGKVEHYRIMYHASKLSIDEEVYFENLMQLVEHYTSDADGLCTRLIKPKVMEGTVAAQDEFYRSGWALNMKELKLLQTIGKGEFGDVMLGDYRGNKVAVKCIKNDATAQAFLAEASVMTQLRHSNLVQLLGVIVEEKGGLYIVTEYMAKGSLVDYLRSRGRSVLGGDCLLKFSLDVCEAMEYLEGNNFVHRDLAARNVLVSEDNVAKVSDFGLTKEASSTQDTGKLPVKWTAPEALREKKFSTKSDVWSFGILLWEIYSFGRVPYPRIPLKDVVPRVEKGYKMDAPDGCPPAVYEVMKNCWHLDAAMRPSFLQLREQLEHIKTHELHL

EPHA1 (human) = EPHA1 (human) (UniProt P21709); assay: Caliper, Mobility shift assay off-chip
PRKCI (human) = PRKCI (human) (UniProt P41743); assay: Caliper, Mobility shift assay off-chip
MAPKAPK5 (human) = MAPKAPK5 (human) (UniProt Q8IW41); assay: Caliper, Mobility shift assay off-chip
PRKX (human) = PRKX (human) (UniProt P51817); assay: Caliper, Mobility shift assay off-chip
IKBKB (human) = IKBKB (human) (UniProt O14920); assay: Caliper, Mobility shift assay off-chip
Chain of IKBKB (human) (O14920 whole entry, looked up): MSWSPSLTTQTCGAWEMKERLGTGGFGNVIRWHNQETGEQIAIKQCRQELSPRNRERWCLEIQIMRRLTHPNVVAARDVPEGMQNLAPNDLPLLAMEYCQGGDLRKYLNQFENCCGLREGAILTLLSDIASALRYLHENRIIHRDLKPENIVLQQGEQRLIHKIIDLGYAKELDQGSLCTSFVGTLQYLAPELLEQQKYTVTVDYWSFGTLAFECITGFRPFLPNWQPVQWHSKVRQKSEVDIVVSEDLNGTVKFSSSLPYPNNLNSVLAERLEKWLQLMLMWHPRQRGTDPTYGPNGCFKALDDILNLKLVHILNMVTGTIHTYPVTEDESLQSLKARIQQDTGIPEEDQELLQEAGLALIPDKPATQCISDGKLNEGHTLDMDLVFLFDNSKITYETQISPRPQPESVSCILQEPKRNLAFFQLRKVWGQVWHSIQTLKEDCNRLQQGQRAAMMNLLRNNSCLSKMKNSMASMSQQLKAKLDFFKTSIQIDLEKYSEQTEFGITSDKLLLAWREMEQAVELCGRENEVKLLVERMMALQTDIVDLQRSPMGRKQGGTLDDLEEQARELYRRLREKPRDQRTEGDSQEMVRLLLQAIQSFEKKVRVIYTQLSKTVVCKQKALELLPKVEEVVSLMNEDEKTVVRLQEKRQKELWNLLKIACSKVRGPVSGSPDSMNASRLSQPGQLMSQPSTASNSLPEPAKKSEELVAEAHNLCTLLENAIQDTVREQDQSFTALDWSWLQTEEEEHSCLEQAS

FGR (human) = FGR (human) (UniProt P09769); assay: Caliper, Mobility shift assay off-chip
CDK4 (human) = CDK4 (human) (UniProt P11802); assay: Caliper, Mobility shift assay off-chip
KIT (human) = KIT (human) (UniProt P10721); assay: Caliper, Mobility shift assay off-chip
CDK2 (human) = CDK2 (human) (UniProt P24941); assay: Caliper, Mobility shift assay off-chip
PRKCG (human) = PRKCG (human) (UniProt P05129); assay: Caliper, Mobility shift assay off-chip
ERBB4 (human) = ERBB4 (human) (UniProt Q15303); assay: Caliper, Mobility shift assay off-chip
Chain of ERBB4 (human) (Q15303 whole entry, looked up): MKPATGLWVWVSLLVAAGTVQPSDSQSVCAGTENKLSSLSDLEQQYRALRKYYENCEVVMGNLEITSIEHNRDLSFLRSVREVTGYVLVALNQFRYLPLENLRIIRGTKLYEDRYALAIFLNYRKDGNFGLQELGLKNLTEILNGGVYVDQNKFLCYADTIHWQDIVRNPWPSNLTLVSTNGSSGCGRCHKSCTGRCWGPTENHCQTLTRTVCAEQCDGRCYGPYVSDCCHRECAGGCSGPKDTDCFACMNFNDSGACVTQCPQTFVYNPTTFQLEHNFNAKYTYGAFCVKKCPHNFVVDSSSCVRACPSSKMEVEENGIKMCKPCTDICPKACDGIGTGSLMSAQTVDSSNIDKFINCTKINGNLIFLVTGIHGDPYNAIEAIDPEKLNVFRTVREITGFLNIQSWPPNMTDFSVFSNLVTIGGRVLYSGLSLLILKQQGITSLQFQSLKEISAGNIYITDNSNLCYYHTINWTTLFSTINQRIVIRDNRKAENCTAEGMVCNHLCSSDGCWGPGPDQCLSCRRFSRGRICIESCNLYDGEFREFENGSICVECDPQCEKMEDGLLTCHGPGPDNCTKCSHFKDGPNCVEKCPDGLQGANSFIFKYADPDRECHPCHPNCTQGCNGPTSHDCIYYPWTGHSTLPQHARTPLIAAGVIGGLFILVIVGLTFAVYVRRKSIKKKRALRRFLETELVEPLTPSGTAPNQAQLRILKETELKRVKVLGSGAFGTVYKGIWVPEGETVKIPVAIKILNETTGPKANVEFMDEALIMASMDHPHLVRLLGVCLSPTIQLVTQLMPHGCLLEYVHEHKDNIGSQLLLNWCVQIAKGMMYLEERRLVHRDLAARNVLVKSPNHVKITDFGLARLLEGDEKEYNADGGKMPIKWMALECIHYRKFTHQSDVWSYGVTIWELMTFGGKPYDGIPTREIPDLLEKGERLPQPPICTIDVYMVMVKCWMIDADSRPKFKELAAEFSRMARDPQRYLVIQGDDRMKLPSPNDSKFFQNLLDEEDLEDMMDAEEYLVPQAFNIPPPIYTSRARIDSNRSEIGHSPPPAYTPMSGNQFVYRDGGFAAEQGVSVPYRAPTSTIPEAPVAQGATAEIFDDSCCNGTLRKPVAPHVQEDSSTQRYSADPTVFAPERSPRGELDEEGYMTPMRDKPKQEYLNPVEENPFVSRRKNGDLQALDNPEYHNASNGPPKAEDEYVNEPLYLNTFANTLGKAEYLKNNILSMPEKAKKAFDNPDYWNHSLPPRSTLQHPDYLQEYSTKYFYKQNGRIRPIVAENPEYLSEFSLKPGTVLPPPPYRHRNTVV

PDPK1 (human) = PDPK1 (human) (UniProt O15530); assay: Caliper, Mobility shift assay off-chip
BRSK2 (human) = BRSK2 (human) (UniProt Q8IWQ3); assay: Caliper, Mobility shift assay off-chip
EIF2AK2 (human) = EIF2AK2 (human) (UniProt P19525); assay: IMAP-FP
MET (human) = MET (human) (UniProt P08581); assay: Caliper, Mobility shift assay off-chip; conditions: compound 0.001 µM
DYRK1A (human) = DYRK1A (human) (UniProt Q13627); assay: Caliper, Mobility shift assay off-chip

Structure (SMILES): Cc1ccc(Nc2nccc(N(C)c3ccc4c(C)n(C)nc4c3)n2)cc1S(N)(=O)=O
- inhibition (PLK2 (human); compound 0.02 µM): 3.9%
- inhibition (PLK2 (human); compound 0.2 µM): -0.8%
- inhibition (PKN1 (human); compound 0.02 µM): -20.5%
- inhibition (PKN1 (human); compound 0.2 µM): -27.6%
- inhibition (EIF2AK3 (human); compound 0.02 µM): -15%
- inhibition (EIF2AK3 (human); compound 0.2 µM): -17%
- inhibition (SRPK1 (human); compound 0.02 µM): -6.8%
- inhibition (SRPK1 (human); compound 0.2 µM): -3.6%
- inhibition (DAPK1 (human); compound 0.02 µM): 6.5%
- inhibition (DAPK1 (human); compound 0.2 µM): 6.7%
- inhibition (EPHB2 (human); compound 0.02 µM): -1.3%
- inhibition (EPHB2 (human); compound 0.2 µM): -2.7%
- inhibition (EPHB3 (human); compound 0.02 µM): -6.1%
- inhibition (EPHB3 (human); compound 0.2 µM): -4%
- inhibition (BLK (human); compound 0.02 µM): 7.7%
- inhibition (BLK (human); compound 0.2 µM): 22.7%
- inhibition (STK24 (human); compound 0.02 µM): 0.2%
- inhibition (STK24 (human); compound 0.2 µM): 3.4%
- inhibition (CHEK1 (human); compound 0.02 µM): 1.8%
- inhibition (CHEK1 (human); compound 0.2 µM): 0.3%
- inhibition (CHUK (human); compound 0.02 µM): -1.2%
- inhibition (CHUK (human); compound 0.2 µM): 0.9%
- inhibition (WNK3 (human); compound 0.02 µM): -0.8%
- inhibition (WNK3 (human); compound 0.2 µM): 3.2%
- inhibition (NIM1 (human); compound 0.02 µM): -11.7%
- inhibition (NIM1 (human); compound 0.2 µM): 10.4%
- inhibition (FRK (human); compound 0.02 µM): 10.3%
- inhibition (FRK (human); compound 0.2 µM): 47.3%
- inhibition (HIPK3 (human); compound 0.02 µM): 2.3%
- inhibition (HIPK3 (human); compound 0.2 µM): 2.6%
- inhibition (MINK1 (human); compound 0.02 µM): 2%
- inhibition (MINK1 (human); compound 0.2 µM): 10.8%
- inhibition (CSK (human); compound 0.02 µM): -4.8%
- inhibition (CSK (human); compound 0.2 µM): -0.7%
- inhibition (EPHA1 (human); compound 0.02 µM): -1.3%
- inhibition (EPHA1 (human); compound 0.2 µM): 15.3%
- inhibition (PRKCI (human); compound 0.02 µM): 3.4%
- inhibition (PRKCI (human); compound 0.2 µM): 2.1%
- inhibition (MAPKAPK5 (human); compound 0.02 µM): 3.2%
- inhibition (MAPKAPK5 (human); compound 0.2 µM): 4.8%
- inhibition (PRKX (human); compound 0.02 µM): -0.6%
- inhibition (PRKX (human); compound 0.2 µM): 0.8%
- inhibition (IKBKB (human); compound 0.02 µM): -3.7%
- inhibition (IKBKB (human); compound 0.2 µM): -2.6%
- inhibition (FGR (human); compound 0.02 µM): 18.8%
- inhibition (FGR (human); compound 0.2 µM): 54.2%
- inhibition (CDK4 (human); compound 0.2 µM): 13.2%
- inhibition (KIT (human); compound 0.2 µM): 83%
- inhibition (CDK2 (human); compound 0.02 µM): -0.1% and -1.7%
- inhibition (CDK2 (human); compound 0.2 µM): -1.7% and -2.8%
- inhibition (PRKCG (human); compound 0.02 µM): 4%
- inhibition (PRKCG (human); compound 0.2 µM): -6.3%
- inhibition (ERBB4 (human); compound 0.02 µM): 8.4%
- inhibition (ERBB4 (human); compound 0.2 µM): 2.6%
- inhibition (PDPK1 (human); compound 0.02 µM): -5%
- inhibition (PDPK1 (human); compound 0.2 µM): -3.3%
- inhibition (BRSK2 (human); compound 0.02 µM): -2.2%
- inhibition (BRSK2 (human); compound 0.2 µM): 0.4%

Structure (SMILES): CNC(=O)c1ccccc1Sc1ccc2c(/C=C/c3ccccn3)n[nH]c2c1
- inhibition (PLK2 (human); compound 0.001 µM): -3%
- inhibition (PLK2 (human); compound 0.02 µM): 1.7%
- inhibition (EIF2AK2 (human); compound 0.001 µM): -26.3%
- inhibition (EIF2AK2 (human); compound 0.02 µM): -20.8%
- inhibition (PKN1 (human); compound 0.001 µM): -26.9%
- inhibition (PKN1 (human); compound 0.02 µM): -21.6%
- inhibition (EIF2AK3 (human); compound 0.001 µM): -16.9%
- inhibition (EIF2AK3 (human); compound 0.02 µM): -10.8%
- inhibition (SRPK1 (human); compound 0.001 µM): -6.9%
- inhibition (SRPK1 (human); compound 0.02 µM): -5.3%
- inhibition (DAPK1 (human); compound 0.001 µM): -5%
- inhibition (DAPK1 (human); compound 0.02 µM): 4.8%
- inhibition (EPHB2 (human); compound 0.001 µM): -6.4%
- inhibition (EPHB2 (human); compound 0.02 µM): -5.2%
- inhibition (EPHB3 (human); compound 0.001 µM): -8%
- inhibition (EPHB3 (human); compound 0.02 µM): -4.7%
- inhibition (BLK (human); compound 0.001 µM): 0.4%
- inhibition (BLK (human); compound 0.02 µM): -1.6%
- inhibition (STK24 (human); compound 0.001 µM): 2.8%
- inhibition (STK24 (human); compound 0.02 µM): -1.1%
- inhibition (CHEK1 (human); compound 0.001 µM): -2%
- inhibition (CHEK1 (human); compound 0.02 µM): 0.9%
- inhibition (MET (human)): -2.4%
- inhibition (CHUK (human); compound 0.001 µM): -2.6%
- inhibition (CHUK (human); compound 0.02 µM): 2.6%
- inhibition (WNK3 (human); compound 0.001 µM): 0.8%
- inhibition (WNK3 (human); compound 0.02 µM): -1.4%
- inhibition (NIM1 (human); compound 0.001 µM): 13.8%
- inhibition (NIM1 (human); compound 0.02 µM): -10.4%
- inhibition (FRK (human); compound 0.001 µM): 6.1%
- inhibition (FRK (human); compound 0.02 µM): 4.2%
- inhibition (HIPK3 (human); compound 0.001 µM): -5.2%
- inhibition (HIPK3 (human); compound 0.02 µM): -1.1%
- inhibition (MINK1 (human); compound 0.001 µM): 0.7%
- inhibition (MINK1 (human); compound 0.02 µM): 0.1%
- inhibition (CSK (human); compound 0.001 µM): -4.6%
- inhibition (CSK (human); compound 0.02 µM): -6.7%
- inhibition (EPHA1 (human); compound 0.001 µM): -5.6%
- inhibition (EPHA1 (human); compound 0.02 µM): -4.2%
- inhibition (PRKCI (human); compound 0.001 µM): 3%
- inhibition (PRKCI (human); compound 0.02 µM): 3.9%
- inhibition (MAPKAPK5 (human); compound 0.001 µM): -1.5%
- inhibition (MAPKAPK5 (human); compound 0.02 µM): 1.6%
- inhibition (PRKX (human); compound 0.001 µM): 0.1%
- inhibition (PRKX (human); compound 0.02 µM): -1.7%
- inhibition (IKBKB (human); compound 0.001 µM): 5.5%
- inhibition (IKBKB (human); compound 0.02 µM): 3.1%
- inhibition (DYRK1A (human); compound 0.001 µM): 8%
- inhibition (DYRK1A (human); compound 0.02 µM): -5.5%
- inhibition (FGR (human); compound 0.001 µM): 8.2%
- inhibition (FGR (human); compound 0.02 µM): 25%
- inhibition (CDK4 (human); compound 0.001 µM): -2.2%
- inhibition (CDK4 (human); compound 0.02 µM): 2.9%
- inhibition (KIT (human); compound 0.001 µM): 37.8%
- inhibition (KIT (human); compound 0.02 µM): 70.5%
- inhibition (PRKCG (human); compound 0.001 µM): 1.2%
- inhibition (PRKCG (human); compound 0.02 µM): 17.3%
- inhibition (ERBB4 (human); compound 0.001 µM): 6.3%
- inhibition (ERBB4 (human); compound 0.02 µM): 3.7%
- inhibition (PDPK1 (human); compound 0.001 µM): -3.6%
- inhibition (PDPK1 (human); compound 0.02 µM): -6.4%
- inhibition (BRSK2 (human); compound 0.001 µM): -3.5%
- inhibition (BRSK2 (human); compound 0.02 µM): 12.9%
